The source of these data is US20100041900A1, “Isolation of lactam compound from adlay bran and its use on anti-proliferative cancer cells” (KUANG TA FOODS CO., LTD, priority 2008, published 2010).

Format in all cases: cell-based
For one experiment, the system named is A549 (human lung cancer). Kind of experiment: MTT assay, growth inhibition of A549 cells. As to conditions: for IC50: Homo sapiens. The method, then: (§1) The cell lines A549 (human lung cancer), HT-29 (human colon carcinoma), and COLO 205 (human colon carcinoma) were obtained from the American Type Culture Collection (ATCC) (Rockville, Md.). These cell lines were maintained in DMEM containing 10% heat-inactivated fetal bovine serum, 100 units/mL of penicillin and 100 μg/mL of streptomycin, and were kept at 37° C. in a 5% CO2 incubator.
(§2) MTT assay was performed as described by Hansen et al. (Hansen et al., J. Immunol. Methods 119, 203-210, 1989). A549 (1.5×10^3 cells/well), HT-29 (2×10^3 cells/well), and COLO 205 (3×10^3 cells/well) were seeded in 96-well plates and grown overnight. Cells were then incubated in 10% FBS medium containing different amounts of adlay bran subfractions for 48 hours. At the end of incubation, media were replaced with 100 μL of reagent (MTT, 1 mg/mL) and incubated in a 5% CO2 incubator at 37° C. for another 2 h. The medium was then discarded and 100 μL of DMSO was added to each well. The absorbance was measured at 570 nm by scanning with a micro-plate reader (Molecular Devices, Calif.). Each sample was analyzed six times, and the values were averaged. For the determination of IC50 (the concentration of each substance required to inhibit cell proliferation by 50%), each sample was measured at five different concentrations by the MTT test. […] The IC50 values of each sample were collected from three replicates, and then mean±standard deviation values were obtained for the results of the IC50 assay.
In general terms: Formazan colour is commonly taken as a measure of viable cells.

Experiment [1] deals with HT-29 (human colon carcinoma). The experiment in a line: MTT assay, growth inhibition of HT-29 cells. As to conditions: 48 hours incubation, mean ± SD of three replicates; for IC50: Homo sapiens, HT-29, 48 h, read-out: IC50 (concentration required for 50% growth inhibition of cancer cells), HT-29. The method, then: as §1, §2
In experiment [2] the test system is COLO 205 (human colon carcinoma). The experiment in a line: MTT assay, growth inhibition of COLO 205 cells. As to conditions: 48 hours incubation, mean ± SD of three replicates; for IC50: Homo sapiens, COLO 205, 48 h, read-out: IC50 (concentration required for 50% growth inhibition of cancer cells), COLO 205. How it is done: as §1, §2
Where [3] appears, read: A549, 48 h, A549 cells, 48 hours incubation, MTT, mean ± SD of three replicates, read-out: IC50 (concentration required for 50% growth inhibition of cancer cells), A549.
Where [4] appears, read: A549, summary range over all five compounds and all three cell lines A549, HT-29, COLO 205, read-out: IC50 values against A549, HT-29 and COLO 205 cells (overall range).

≈ marks a conversion by molar mass, not a printed value. Where two headings read alike, the source gives them in different places.

Turning to `O=C1C[C@]2(CO1)C(=O)Nc1ccccc12` [Compound 1, coixspirolactam A], the IC50 in the experiment with A549 (human lung cancer) (setting [3]) was 37.1 ± 1.93 µg/mL (≈ 183 µM); in the experiment with A549 (human lung cancer) (setting [4]), 28.6 to 72.6 µg/mL (≈ 141 to 357 µM); in experiment [1] it was 34.4 ± 3.53 µg/mL (≈ 169 µM); in experiment [2], 35.9 ± 4.65 µg/mL (≈ 177 µM).

Consider `CC1OC(=O)C[C@@]12C(=O)Nc1ccccc12` (stereo partly shown) [Compound 2, coixspirolactam B], for which the IC50 in the experiment on A549 (human lung cancer) (setting [3]) was 28.6 ± 2.04 µg/mL (≈ 132 µM); with A549 (human lung cancer) (setting [4]), 28.6 to 72.6 µg/mL (≈ 132 to 334 µM); in experiment [1], 32.7 ± 2.29 µg/mL (≈ 151 µM); in experiment [2] it was 41.3 ± 3.52 µg/mL (≈ 190 µM).

`CC1OC(=O)C[C@@]12C(=O)Nc1ccccc12` (stereo partly shown) [Compound 3, coixspirolactam C]: the “IC50 (concentration required for 50% growth inhibition of cancer cells), A549” value in the experiment on A549 (human lung cancer) (A549 cells, 48 hours incubation, MTT, mean ± SD of three replicates) turned out to be 31.75 ± 2.58 µg/mL. Further, the “IC50 (concentration required for 50% growth inhibition of cancer cells), HT-29” value in experiment [1] amounted to 37.55 ± 3.08 µg/mL. The “IC50 (concentration required for 50% growth inhibition of cancer cells), COLO 205” value in experiment [2] is 48.12 ± 4.15 µg/mL.

As for `COC(=O)[C@H]1Cc2ccccc2NC1=O` [Compound 4, coixlactam], the IC50 was 65 ± 3.32 µg/mL (≈ 317 µM) in the experiment on A549 (human lung cancer) (setting [3]), 28.6 to 72.6 µg/mL (≈ 139 to 354 µM) in the experiment on A549 (human lung cancer) (setting [4]), 52.6 ± 2.64 µg/mL (≈ 256 µM) in experiment [1] and 72.6 ± 5.31 µg/mL (≈ 354 µM) in experiment [2].

As to `COC(=O)CC1(O)C(=O)Nc2ccccc21` (stereo not shown) [Compound 5, methyl dioxindole-3-acetate], the IC50 in the experiment with A549 (human lung cancer) (setting [3]) was 42.6 ± 2.31 µg/mL (≈ 193 µM); in the experiment with A549 (human lung cancer) (setting [4]) it was 28.6 to 72.6 µg/mL (≈ 129 to 328 µM); in experiment [1], 48.9 ± 3.83 µg/mL (≈ 221 µM); in experiment [2], 45.5 ± 6.42 µg/mL (≈ 206 µM).
